Data as given in article PMC8501045, “Addressing MRSA infection and antibacterial resistance with peptoid polymers” (Nature Communications, 2021).

Key:
[1] = test system: S. haemolyticus 0202; experiment: Mouse peritonitis model, CFU in organs, blood and IP fluid, S. haemolyticus; type: in vivo; conditions: Figure 6f
Description: (§1) This infection model was conducted according to the previously reported method with slight modification. Female ICR mice (21–24 g) were used for MRSA-infected peritonitis model. Mice were infected by intraperitoneal administration of 0.2 mL of S. aureus USA300 LAC in saline (7.5 × 10^8 CFU/mL) supplemented with 5% mucin. […] Once the infected mice died, peritoneal lavage was performed by injecting 3.0 mL of saline into the peritoneal cavity and massaging the abdomen. Subsequently, the abdomen was opened and peritoneal fluid was recovered from the abdominal cavity for analysis. Blood samples were collected through cardiac puncture for analysis of CFU/mL. Then, different organs including the heart, liver, spleen, lung, and kidney were removed and homogenized in 0.1% TX-100 solution. The homogenate was serially diluted for plating on LB agar. After incubation at 37 °C for 14 h, the number of colonies on the plate was counted to calculate the bacteria burden. Surviving mice were euthanized at 48 h after infection. The blood, peritoneal fluid, and organs were collected for the determination of bacterial colonies. […] For the pretreatment group, mice were sacrificed and tissues were harvested to determine the CFU at 1 h post infection.
(§2) For experiments of S. epidermidis and S. haemolyticus infections, female ICR mice (22–24 g) were rendered neutropenic by treatment with 150 and 100 mg/kg of cyclophosphamide intraperitoneally at 4 days and 1 day prior to infection. Mice were infected by intraperitoneal administration of 0.2 mL of S. epidermidis 9397 (5.1 × 10^9 CFU/mL) or S. haemolyticus 0202 (2.6 × 10^9 CFU/mL) in saline. Other experiment conditions were similar to those in MRSA peritonitis model.

[2] = test system: S. epidermidis 9397; experiment: Mouse peritonitis model, CFU in organs, blood and IP fluid, S. epidermidis; type: in vivo; conditions: Figure 6e, IP fluid
Description: as §1, §2

## CN[C@H](CC(C)C)C(=O)N[C@H]1C(=O)N[C@@H](CC(N)=O)C(=O)N[C@H]2C(=O)N[C@H]3C(=O)N[C@H](C(=O)N[C@H](C(=O)O)c4cc(O)cc(O)c4-c4cc3ccc4O)[C@H](O)c3ccc(c(Cl)c3)Oc3cc2cc(c3O[C@@H]2O[C@H](CO)[C@@H](O)[C@H](O)[C@H]2O[C@H]2C[C@](C)(N)[C@H](O)[C@H](C)O2)Oc2ccc(cc2Cl)[C@H]1O [Vancomycin]
[1]; individual mouse 1 of 6
  Log10(CFU/mL IP fluid): 3.226 Log10(CFU/mL)
  Log10(CFU/mL Blood): 3.398 Log10(CFU/mL)
  Log10(CFU/g Heart): 4.437 Log10(CFU/g)
  Log10(CFU/g Kidney): 4.477 Log10(CFU/g)
  Log10(CFU/g Liver): 4.477 Log10(CFU/g)
  Log10(CFU/g Lung): 5.45 Log10(CFU/g)
  Log10(CFU/g Spleen): 6.652 Log10(CFU/g)
[1]; individual mouse 2 of 6
  Log10(CFU/mL IP fluid): 4.392 Log10(CFU/mL)
  Log10(CFU/mL Blood): 3.213 Log10(CFU/mL)
  Log10(CFU/g Heart): 5.504 Log10(CFU/g)
  Log10(CFU/g Kidney): 5.326 Log10(CFU/g)
  Log10(CFU/g Liver): 5.908 Log10(CFU/g)
  Log10(CFU/g Lung): 5.572 Log10(CFU/g)
  Log10(CFU/g Spleen): 7.228 Log10(CFU/g)
[1]; individual mouse 3 of 6
  Log10(CFU/mL IP fluid): 3.853 Log10(CFU/mL)
  Log10(CFU/mL Blood): 2.602 Log10(CFU/mL)
  Log10(CFU/g Heart): 4.593 Log10(CFU/g)
  Log10(CFU/g Kidney): 5 Log10(CFU/g)
  Log10(CFU/g Liver): 4.978 Log10(CFU/g)
  Log10(CFU/g Lung): 6.099 Log10(CFU/g)
  Log10(CFU/g Spleen): 6.728 Log10(CFU/g)
[1]; individual mouse 4 of 6
  Log10(CFU/mL IP fluid): 4.647 Log10(CFU/mL)
  Log10(CFU/mL Blood): 3.336 Log10(CFU/mL)
  Log10(CFU/g Heart): 5.198 Log10(CFU/g)
  Log10(CFU/g Kidney): 5.151 Log10(CFU/g)
  Log10(CFU/g Liver): 5.097 Log10(CFU/g)
  Log10(CFU/g Lung): 5.247 Log10(CFU/g)
  Log10(CFU/g Spleen): 6.799 Log10(CFU/g)
[1]; individual mouse 5 of 6
  Log10(CFU/mL IP fluid): 4.595 Log10(CFU/mL)
  Log10(CFU/mL Blood): 2.62 Log10(CFU/mL)
  Log10(CFU/g Heart): 4.862 Log10(CFU/g)
  Log10(CFU/g Kidney): 5.103 Log10(CFU/g)
  Log10(CFU/g Liver): 5.108 Log10(CFU/g)
  Log10(CFU/g Lung): 5.56 Log10(CFU/g)
  Log10(CFU/g Spleen): 6.226 Log10(CFU/g)
[1]; individual mouse 6 of 6
  Log10(CFU/mL IP fluid): 4.235 Log10(CFU/mL)
  Log10(CFU/mL Blood): 0 Log10(CFU/mL)
  Log10(CFU/g Heart): 5.445 Log10(CFU/g)
  Log10(CFU/g Kidney): 6.713 Log10(CFU/g)
  Log10(CFU/g Liver): 5.286 Log10(CFU/g)
  Log10(CFU/g Lung): 6.002 Log10(CFU/g)
  Log10(CFU/g Spleen): 6.995 Log10(CFU/g)
[2]; individual mouse 1 of 6
  Log10(CFU/mL IP fluid): 6.824 Log10(CFU/mL)
[2]; individual mouse 2 of 6
  Log10(CFU/mL IP fluid): 5.982 Log10(CFU/mL)
